Measurements as given in patent US8580856B2, “Acetaminophen/ibuprofen combinations and method for their use” (McNeil-PPC, Inc., priority 2006, dated 2013).

Tested on: CO2-laser-induced painful stimulus on UV(B) irradiated skin
Assay: Laser somatosensory evoked potentials (LSEP) analgesia study, peak-to-peak amplitude
Type: in vivo, human
Conditions: for Estimate (difference between Treatment A and Treatment B), peak-to-peak LSEP amplitude: single oral dose, 24 subjects, cross-over; for Analgesic effectiveness versus placebo (peak-to-peak LSEP amplitudes), in words: FIG. 1 and Table C
Procedure: General Timing of Study: Each subject was treated on six different treatment days in a randomized, placebo-controlled, double-blind six sequence cross-over study, with each treatment being a different dosage combination of acetaminophen (“APAP”) and ibuprofen (“IBU”) administered in a random order. The total duration of the study per subject was about 46 days. The washout period between the six treatment days was about 7 days. About 2 to 14 days before receiving the first treatment, each subject participated in a one-day, pre-study examination visit.
On each treatment day, each subject stayed for approximately 7 hours at the treatment center, and followed the schedule set forth below in Table A:
Method of Pain Induction: A pulsed CO2 laser, which is commercially available from Synrad, Inc., under the tradename, “Synrad Infrared Gas Laser,” model E48−/−26W was used to induce painful stimuli in the desired skin location.
Evaluation of Pain Relief: Laser induced somatosensory evoked potentials (LSEPs), which served as an objective-quantitative measurement of pain, were generating using Vertex-EEG readings collected using a MUX800/UBV800 Multiplexer and universal bio-amplifier with integrated 15 Hz-impedance measurement, both of which are commercially available from Rimkus Medizintechnik. Twelve artifact free EEG-sections of 3 second duration were averaged in two steps: (1.) 3×4 original sweeps; and (2.) 3×1 averaged sweeps, digitally filtered (Gaussian phase-free software filter on the basis of a Fast Fourier Transform (FFT), with ranges from 1.0 Hz to 12.5 Hz (first step) and 1.5 to 10.0 Hz (second step)). Means were analyzed for a time window of 600 ms after laser stimulation to identify and measure the components of the evoked potentials (latencies and amplitudes). The N1 and P2 components, which are the pain related components of the EEG-signal, were derived as described above and analyzed in accordance with the procedure set forth in Schaffler K., et al., “Analgesic effects of low-dose intravenous orphenadrine in the state of capsaicin hyperalgesia. A randomised, placebo-controlled, double-blind cross-over study using laser somatosensory evoked potentials obtained from capsaicin-irritated skin in healthy volunteers,” 54(10) Arzneimittel-Forschung. 673-9 (2004). The N1-P2-peak-to peak amplitudes as well as the amplitudes of the individual N1 and P2 components were determined from the Vertex-EEG reading, and the correlated pain response was thereby determined in accordance with the procedure generally set forth in Seibel, K., et al., “Comparison of Two Different Preparations of Ibuprofen with Regard to the Time Course of their Analgesic Effect,” 54(8) Arnzeimittel-Forschung 444-51 (2004). The LSEP recording at hour −2:05 served as baseline (=t0). Drug induced analgesia was reflected by an amplitude reduction versus control or comparator treatment.
According to this procedure, a change in LSEP amplitude of about 1.0 to 3.0 μV was previously determined to be generally sufficient to allow for statistically significant discrimination between, for example, a given active agent vs. placebo, vs. other active agents, and/or vs. different dosages of the same active agent. An amplitude difference in the LSEP that exceeds about 2.0-2.5 μV (in peak-to-peak (PtP) amplitude) and > about 1.00-1.25 μV (for the single N1- and P2-components) was defined as clinically relevant.
The procedure set forth in Example 1 was independently performed on 24 subjects in a randomized, placebo-controlled, double-blind 6 sequence cross-over study. The six ibuprofen/acetaminophen treatments administered on the treatment days consisted of two white caplets and 4 red tablets comprised of the doses set forth in Table B: […]

[1] = Treatment B = Placebo, over the treatment period

SMILES: CC(=O)Nc1ccc(O)cc1 [APAP 1000 mg, acetaminophen]
- Estimate (difference between Treatment A and Treatment B), peak-to-peak LSEP amplitude (Treatment B = APAP250 + IBU300): 1.6417
- Estimate (difference between Treatment A and Treatment B), peak-to-peak LSEP amplitude (Treatment B = APAP500 + IBU200): 1.5389
- Estimate (difference between Treatment A and Treatment B), peak-to-peak LSEP amplitude (Treatment B = APAP750 + IBU100): 2.7487
- Estimate (difference between Treatment A and Treatment B), peak-to-peak LSEP amplitude (Treatment B = IBU400): 0.01133
- Estimate (difference between Treatment A and Treatment B), peak-to-peak LSEP amplitude [1]: −4.4020
- Analgesic effectiveness versus placebo (peak-to-peak LSEP amplitudes), in words: significantly more effective analgesics than the placebo

SMILES: CC(C)Cc1ccc(C(C)C(=O)O)cc1 (centres unmarked) [IBU 400 mg, ibuprofen]
- Estimate (difference between Treatment A and Treatment B), peak-to-peak LSEP amplitude [1]: −4.4134
- Analgesic effectiveness versus placebo (peak-to-peak LSEP amplitudes), in words: significantly more effective analgesics than the placebo
